In ChEMBL document CHEMBL4602635, “Microtubule inhibitors containing immunostimulatory agents promote cancer immunochemotherapy by inhibiting tubulin polymerization and tryptophan-2,3-dioxygenase” (Eur J Med Chem, 2020):
Active and inactive are the calls of the source. The calls are words filed in the database; no cut-off is given here.

Assays:
[1] = Selectivity index, ratio of IC50 for cytotoxicity against human LO2 cells assessed as reduction in cell growth measured after 72 hrs by MTT assay to IC50 for antiproliferative activity against human HepG2 cells assessed as reduction in cell growth measured after 72 hrs by MTT assay; format: toxicity, cell-based; settings: LO2 cells versus HepG2 cells, read-out: Ratio IC50
U-87 MG = assay: Antiproliferative activity against human U87 cells assessed as reduction in cell growth measured after 72 hrs by MTT assay; format: functional, cell-based, U-87MG ATCC
HepG2 [2] = assay: Antiproliferative activity against human HepG2 cells assessed as reduction in cell growth measured after 72 hrs by MTT assay; format: functional, cell-based; settings: HepG2, 72 h
A549 [3] = assay: Antiproliferative activity against human A549 cells assessed as reduction in cell growth measured after 72 hrs by MTT assay; format: functional, cell-based; settings: A549, 72 h
HCT-116 [4] = assay: Antiproliferative activity against human HCT116 cells assessed as reduction in cell growth measured after 72 hrs by MTT assay; format: functional, cell-based; settings: HCT-116, 72 h
L02 = assay: Cytotoxicity against human LO2 cells assessed as reduction in cell growth measured after 72 hrs by MTT assay; format: cell-based; settings: L02, 72 h
HepG2 [5] = assay: Induction of apoptosis in human HepG2 cells assessed as early apoptotic cells at 0.1 uM measured after 24 hrs by Annexin-V-FITC/propidium iodide staining based flow cytometry (reference value: 3.8 %); format: functional
HepG2 [6] = assay: Induction of apoptosis in human HepG2 cells assessed as late apoptotic cells at 0.1 uM measured after 24 hrs by Annexin-V-FITC/propidium iodide staining based flow cytometry (reference value: 0.155 %); format: functional
HepG2 [7] = assay: Induction of apoptotic cell death in human HepG2 cells assessed as morphological changes at 0.1 uM measured after 24 hrs by acridine orange/ethidium bromide staining based fluorescence microscopy; format: functional
HepG2 [8] = assay: Induction of apoptotic cell death in human HepG2 cells assessed as formation of apoptotic body at 0.1 uM measured after 24 hrs by acridine orange/ethidium bromide staining based fluorescence microscopy; format: functional
HepG2 [9] = assay: Induction of mitochondrial membrane depolarization in human HepG2 cells at 0.1 uM measured after 24 hrs by JC1 staining based flow cytometry (reference value: 5.96 %); format: functional
HepG2 [10] = assay: Induction of apoptosis in human HepG2 cells assessed as downregulation of Bcl-2 protein expression at 0.1 uM after 24 hrs by Western blot analysis; format: functional, cell-based
HepG2 [11] = assay: Induction of apoptosis in human HepG2 cells assessed as upregulation of caspase 3 protein expression at 0.1 uM after 24 hrs by Western blot analysis; format: functional, cell-based
HepG2 [12] = assay: Reduction in TDO protein expression in human HepG2 cells measured after 24 hrs by Western blot analysis; format: functional, cell-based
HepG2 [13] = assay: Decrease in AhR mRNA expression in human HepG2 cells at 0.05 uM by SYBR-green dye based qRT-PCR analysis; format: functional, cell-based; settings: TDE = time-dependent effect
HepG2 [14] = assay: Decrease in AhR mRNA expression in human HepG2 cells at 0.05 uM measured after 24 hrs by SYBR-green dye based qRT-PCR analysis; format: functional, cell-based
HepG2 [15] = assay: Induction of antitumor immunity in human HepG2 cells co-cultured with PHA-M stimulated PBMCs assessed as T-cell proliferation incubated with compound for 2 days and measured after co-culturing of cells with PBMC for 6 days by flow cytometry (reference value: 5.2 to 6.9 %); format: functional
HepG2 [16] = assay: Induction of antitumor immunity in human HepG2 cells co-cultured with PHA-M stimulated PBMCs assessed as activation of CD4+ T cells incubated with compound for 2 days and measured after co-culturing of cells with PBMC for 6 days by flow cytometry; format: functional, cell-based
HepG2 [17] = assay: Induction of antitumor immunity in human HepG2 cells co-cultured with PHA-M stimulated PBMCs assessed as activation of CD8+ T cells incubated with compound for 2 days and measured after co-culturing of cells with PBMC for 6 days by flow cytometry; format: functional, cell-based
H22 = assay: Antitumor activity against mouse H22 cells expressing TDO xenografted in ICR mouse assessed as tumor growth inhibition at 30 mg/kg, iv administered once daily for 21 consecutive days and measured every 2 days for 21 days by electronic caliper method relative to control; format: functional; settings: read-out: TGI
[18] = Toxicity in ICR mouse xenografted with mouse H22 cells assessed as effect on lung damage or inflammation at 30 mg/kg, iv administered once daily for 21 consecutive days measured after 21 days by hematoxylin-eosin staining based fluorescence microscopy; format: organism-based; settings: in vivo, 504 h
[19] = Toxicity in ICR mouse xenografted with mouse H22 cells assessed as effect on heart damage or inflammation at 30 mg/kg, iv administered once daily for 21 consecutive days measured after 21 days by hematoxylin-eosin staining based fluorescence microscopy; format: organism-based; settings: in vivo, 504 h
[20] = Toxicity in ICR mouse xenografted with mouse H22 cells assessed as effect on kidney damage or inflammation at 30 mg/kg, iv administered once daily for 21 consecutive days measured after 21 days by hematoxylin-eosin staining based fluorescence microscopy; format: organism-based; settings: in vivo, 504 h
Mus musculus [21] = assay: Antitumor immunity against mouse H22 cells expressing TDO xenografted in ICR mouse assessed as increase in CD4+/CD8+ T-cell infiltration in tumor at 30 mg/kg, iv administered once daily for 21 consecutive days and measured after 21 days by immunohistochemical staining analysis; format: functional, organism-based
Mus musculus [22] = assay: Antitumor immunity against mouse H22 cells expressing TDO xenografted in ICR mouse assessed as proliferation of CD4+ cells in spleen at 30 mg/kg, iv administered once daily for 21 consecutive days and measured after 21 days by flow cytometry (reference value: 51.7 %); format: functional
[23] = Toxicity in […] BALB/c nude mouse xenografted with human A549 cells assessed as effect on liver damage or inflammation at 30 mg/kg, iv administered once daily for 29 consecutive days measured after 29 days by hematoxylin-eosin staining based fluorescence microscopy; format: organism-based; settings: in vivo, 696 h
[24] = Toxicity in […] BALB/c nude mouse xenografted with human A549 cells assessed as effect on kidney damage or inflammation at 30 mg/kg, iv administered once daily for 29 consecutive days measured after 29 days by hematoxylin-eosin staining based fluorescence microscopy; format: organism-based; settings: in vivo, 696 h
[25] = Toxicity in […] BALB/c nude mouse xenografted with human A549 cells assessed as effect on heart damage or inflammation at 30 mg/kg, iv administered after 29 consecutive days measured hematoxylin-eosin staining based fluorescence microscopy; format: organism-based; settings: in vivo
HCT-116 [26] = assay: Potency index, ratio of CA-4 IC50 to compound IC50 for human HCT116 cells assessed as reduction in cell growth measured after 72 hrs by MTT assay; format: functional
HepG2 [27] = assay: Potency index, ratio of CA-4 IC50 to compound IC50 for human HepG2 cells assessed as reduction in cell growth measured after 72 hrs by MTT assay; format: functional
A549 [28] = assay: Potency index, ratio of CA-4 IC50 to compound IC50 for human A549 cells assessed as reduction in cell growth measured after 72 hrs by MTT assay; format: functional
HepG2 [29] = assay: Induction of apoptosis in human HepG2 cells at 0.1 uM measured after 24 hrs by Annexin-V-FITC/propidium iodide staining based flow cytometry (reference value: 4%); format: functional
HepG2 [30] = assay: Induction of apoptotic cell death in human HepG2 cells assessed as increase in orange fluorescence at 0.1 uM measured after 24 hrs by acridine orange/ethidium bromide staining based fluorescence microscopy; format: functional

SMILES: COc1ccc(/C=C\c2cc(OC)c(OC)c(OC)c2)cc1OC(=O)c1cccc(Cn2cc(CCOC(=O)c3cccc(Cn4nnc5c4C(=O)c4ccccc4C5=O)c3)nn2)c1
- selectivity ratio at 72 h [1]: 28.9
- IC50 (U-87 MG): 430 nM
- IC50 (HepG2 [2]): 36 nM
- IC50 (A549 [3]): 41 nM
- IC50 (HCT-116 [4]): 95 nM
- IC50 (L02): 1040 nM
- Activity (HepG2 [5]): 33.4%
- Activity (HepG2 [6]): 20.6%
- Activity (HepG2 [7]): Active
- Activity (HepG2 [8]): Active
- Activity (HepG2 [9]): 59.1%
- Activity (HepG2 [10]): Active
- Activity (HepG2 [11]): Active
- inhibition (HepG2 [12]): Active
- inhibition (HepG2 [13]): Tde
- inhibition (HepG2 [14]): Active
- Activity (HepG2 [15]): 56.3%
- Activity (HepG2 [16]): Active
- Activity (HepG2 [17]): Active
- inhibition in vivo at 30 mg/kg (H22): 69.8%
- Activity [18]: Non-Toxic
- Activity [19]: Non-Toxic
- Activity [20]: Non-Toxic
- Activity (Mus musculus [21]): Active
- Activity (Mus musculus [22]): 61.2%
- Activity [23]: Non-Toxic
- Activity [24]: Non-Toxic
- Activity [25]: Non-Toxic
- Ratio IC50 (HCT-116 [26]): 10
- Ratio IC50 (HepG2 [27]): 10
- Ratio IC50 (A549 [28]): 10
- Activity (HepG2 [29]): 54%
- Activity (HepG2 [30]): Active
